Assay type in all cases: cell-based
The test system of one assay is E. faecalis VanB E80-8. Kind of assay: Antimicrobial susceptibility testing (CLSI broth dilution MIC). The following applies: for MIC: Enterococcus faecalis, VANBE808, representative pathogens for skin infections, read-out: Minimum Inhibitory Concentration (MIC) E. faecalis VanB E80-8; for Minimum Inhibitory Concentration (MIC) E. faecalis VanB E80-8: representative pathogens for gastro-intestinal infections. As for the experimental part:
(§1) Antimicrobial susceptibility testing was performed in accordance with the Clinical and Laboratory Standards Institute (CLSI).
(§2) Clinical and Laboratory Standards Institute (CLSI; formerly NCCLS): Methods for Dilution Antimicrobial Susceptibility Tests for Bacteria That Grow Aerobically; Approved Standard—Seventh Edition (2006). Clinical and Laboratory Standards Institute document M7-A7.
A general note: Broth dilution looks for growth in wells or tubes with falling amounts of substance.

Another assay relates to S. aureus ATCC 25923. The assay is described as above. The following applies: Staphylococcus aureus, ATCC25923. As for the experimental part: as §1, §2
Another assay concerns S. aureus MRSA 101. The description is as above. The following applies: Staphylococcus aureus. The protocol: as §1, §2
The test system of another assay is S. aureus MRSA 39. The assay is described as above. The following applies: for MIC: Staphylococcus aureus, MRSA, representative pathogens for nasal colonization, read-out: Minimum Inhibitory Concentration (MIC) S. aureus MRSA 39. The protocol: as §1, §2
Another assay concerns S. epidermidis MRSE 70. The assay is described as above. The following applies: for MIC: Staphylococcus epidermidis, MRSE, representative pathogens for nasal colonization, read-out: Minimum Inhibitory Concentration (MIC) S. epidermidis MRSE 70. The protocol: as §1, §2
The next assay concerns S. pneumoniae 1/1. As to the kind of experiment: Antimicrobial susceptibility testing of streptococci (CLSI, Todd Hewitt Broth without blood). The following applies: Streptococcus pneumoniae, representative pathogens for ocular infections, read-out: Minimum Inhibitory Concentration (MIC) S. pneumoniae 1/1. As for the experimental part: (§3) Antimicrobial susceptibility testing was performed in accordance with the Clinical and Laboratory Standards Institute (CLSI). Clinical and Laboratory Standards Institute (CLSI; formerly NCCLS): Methods for Dilution Antimicrobial Susceptibility Tests for Bacteria That Grow Aerobically; Approved Standard—Seventh Edition (2006). Clinical and Laboratory Standards Institute document M7-A7. Streptococci (S. pneumoniae, S. pyogenes, S. viridans) were tested following the CLSI methodology with the exception that Todd Hewitt Broth without blood was used. Anaerobic bacteria (P. acnes, B. distasonis) were tested following CLSI (formerly NCCLS) guidelines except for using microbroth dilutions in Wilkins Chalgren Broth. National Committee for Clinical Laboratory Standards (NCCLS). Methods for Anti-microbial Susceptibility Testing of Anaerobic Bacteria; Approved Standard—Sixth Edition (2004). NCCLS document M11-A6.

The next assay has as its system S. pyogenes GAS-1. The assay is described as above. The following applies: for MIC: Streptococcus pyogenes, GAS1, representative pathogens for ocular infections, read-out: Minimum Inhibitory Concentration (MIC) S. pyogenes GAS-1; for Minimum Inhibitory Concentration (MIC) S. pyogenes GAS-1: representative pathogens for skin infections. The protocol:
as §3

In a further assay the test system is S. viridans UHC7. The assay is described as above. The following applies: Streptococcus viridans, representative pathogens for dental infections, read-out: Minimum Inhibitory Concentration (MIC) S. viridans UHC7. As for the experimental part:
as §3

The subject of another assay is B. distasonis 5770. As to the kind of experiment: Antimicrobial susceptibility testing of anaerobic bacteria (microbroth dilution, Wilkins Chalgren Broth). The following applies: Parabacteroides distasonis, representative pathogens for gastro-intestinal infections, read-out: Minimum Inhibitory Concentration (MIC) B. distasonis 5770. The protocol: as §3, with “(CLSI).” for “(CLSI). Clinical and Laboratory Standards Institute (CLSI; formerly NCCLS): Methods for Dilution Antimicrobial Susceptibility Tests for Bacteria That Grow Aerobically; Approved Standard—Seventh Edition (2006). Clinical and Laboratory Standards Institute document M7-A7.”

Another assay concerns P. acnes 6390. The assay is described as above. The following applies: Cutibacterium acnes, representative pathogens for skin infections, read-out: Minimum Inhibitory Concentration (MIC) P. acnes 6390. As for the experimental part: as §3, with “(CLSI).” for “(CLSI). Clinical and Laboratory Standards Institute (CLSI; formerly NCCLS): Methods for Dilution Antimicrobial Susceptibility Tests for Bacteria That Grow Aerobically; Approved Standard—Seventh Edition (2006). Clinical and Laboratory Standards Institute document M7-A7.”

[1] abbreviates: representative pathogens for nasal colonization, read-out: Minimum Inhibitory Concentration (MIC) S. aureus ATCC 25923.
[2] abbreviates: representative pathogens for ocular infections, read-out: Minimum Inhibitory Concentration (MIC) S. aureus 25923.
Setting [3] is: representative pathogens for nasal colonization, read-out: Minimum Inhibitory Concentration (MIC) S. aureus MRSA 101.
The mark [4] stands for this setting: representative pathogens for ocular infections, read-out: Minimum Inhibitory Concentration (MIC) S. aureus MRSA101.
The mark [5] stands for this setting: representative pathogens for ocular infections.
Setting [6] is: representative pathogens for skin infections.

This is an account of results in US20090023813A1, “Diphenyl Urea Derivatives” (Arpida AG, priority 2005, published 2009).

Converted amounts (≈) assume the structure as drawn. Read-outs that look alike come from different tables or passages of the source.

`FC(F)(F)c1cc(Br)cc(NC(=S)Nc2ccc(Cl)c(C(F)(F)F)c2)c1` [Example 3, 1-(3-Bromo-5-trifluoromethyl-phenyl)-3-(4-chloro-3-trifluoromethyl-phenyl)-thiourea]: the MIC turned out to be 1 µg/mL (≈ 2.09 µM) in the assay with E. faecalis VanB E80-8; 0.125 µg/mL (≈ 0.262 µM) in the assay on S. aureus ATCC 25923 (setting [1]); 0.125 µg/mL (≈ 0.262 µM) with S. aureus ATCC 25923 (setting [2]); 0.5 µg/mL (≈ 1.05 µM) in the assay with S. aureus MRSA 101 (setting [3]); 0.5 µg/mL (≈ 1.05 µM) with S. aureus MRSA 101 (setting [4]); 0.25 µg/mL (≈ 0.523 µM) with S. aureus MRSA 39. Besides, the MIC was 0.25 µg/mL (≈ 0.523 µM) in the assay on S. epidermidis MRSE 70; 0.25 µg/mL (≈ 0.523 µM) in the assay with S. pneumoniae 1/1; 0.25 µg/mL (≈ 0.523 µM) with S. pyogenes GAS-1; 1 µg/mL (≈ 2.09 µM) in the assay on S. viridans UHC7; 1 µg/mL (≈ 2.09 µM) in the assay with B. distasonis 5770; at most 0.03 µg/mL in the assay on P. acnes 6390. In the assay on E. faecalis VanB E80-8, the “Minimum Inhibitory Concentration (MIC) E. faecalis VanB E80-8” value is 1 micrograms/ml. The “Minimum Inhibitory Concentration (MIC) S. aureus MRSA 39” value in the assay on S. aureus MRSA 39 (setting [5]) and in the assay on S. aureus MRSA 39 (setting [6]) was 0.25 micrograms/ml in each case. Also, the “Minimum Inhibitory Concentration (MIC) S. epidermidis MRSE 70” value in the assay with S. epidermidis MRSE 70 (setting [5]) and with S. epidermidis MRSE 70 (setting [6]) was 0.25 micrograms/ml each time. Besides, the “Minimum Inhibitory Concentration (MIC) S. pyogenes GAS-1” value in the assay with S. pyogenes GAS-1 stood at 0.25 micrograms/ml.

For the compound `O=C(Nc1cc(Br)cc(C(F)(F)F)c1)Nc1ccc(Cl)c(C(F)(F)F)c1` [Example 1, 1-(3-Bromo-5-trifluoromethyl-phenyl)-3-(4-chloro-3-trifluoromethyl-phenyl)-urea], the MIC in the assay with E. faecalis VanB E80-8 worked out at 2 µg/mL (≈ 4.33 µM); in the assay with S. aureus ATCC 25923 (setting [1]), 0.5 µg/mL (≈ 1.08 µM); in the assay with S. aureus ATCC 25923 (setting [2]), 0.5 µg/mL (≈ 1.08 µM); in the assay on S. aureus MRSA 101 (setting [3]), 0.125 µg/mL (≈ 0.271 µM); with S. aureus MRSA 101 (setting [4]), 0.125 µg/mL (≈ 0.271 µM); in the assay with S. aureus MRSA 39, 0.25 µg/mL (≈ 0.542 µM). Besides, the MIC with S. epidermidis MRSE 70 was 0.25 µg/mL (≈ 0.542 µM); in the assay on S. pneumoniae 1/1, 0.125 µg/mL (≈ 0.271 µM); in the assay on S. pyogenes GAS-1, 0.25 µg/mL (≈ 0.542 µM); with S. viridans UHC7 it was 0.5 µg/mL (≈ 1.08 µM); in the assay on B. distasonis 5770, 0.5 µg/mL (≈ 1.08 µM); in the assay with P. acnes 6390 it was at most 0.03 µg/mL. Also, in the assay with E. faecalis VanB E80-8, the “Minimum Inhibitory Concentration (MIC) E. faecalis VanB E80-8” value came out at 2 micrograms/ml. The “Minimum Inhibitory Concentration (MIC) S. aureus MRSA 39” value in the assay with S. aureus MRSA 39 (setting [5]) and in the assay on S. aureus MRSA 39 (setting [6]) was 0.25 micrograms/ml in each case. The “Minimum Inhibitory Concentration (MIC) S. epidermidis MRSE 70” value with S. epidermidis MRSE 70 (setting [5]) and in the assay with S. epidermidis MRSE 70 (setting [6]) was 0.25 micrograms/ml in each case. Besides, the “Minimum Inhibitory Concentration (MIC) S. pyogenes GAS-1” value in the assay with S. pyogenes GAS-1 stood at 0.25 micrograms/ml.

Regarding `O=C(Nc1cc(Cl)cc(C(F)(F)F)c1)Nc1ccc(Cl)c(C(F)(F)F)c1` [Example 2, 1-(3-Chloro-5-trifluoromethyl-phenyl)-3-(4-chloro-3-trifluoromethyl-phenyl)-urea], the MIC in the assay on E. faecalis VanB E80-8 was 1 µg/mL (≈ 2.4 µM); with S. aureus ATCC 25923 (setting [1]), 0.25 µg/mL (≈ 0.599 µM); in the assay with S. aureus ATCC 25923 (setting [2]), 0.25 µg/mL (≈ 0.599 µM); in the assay with S. aureus MRSA 101 (setting [3]), 0.125 µg/mL (≈ 0.3 µM); in the assay with S. aureus MRSA 101 (setting [4]), 0.125 µg/mL (≈ 0.3 µM); in the assay on S. aureus MRSA 39, 0.25 µg/mL (≈ 0.599 µM). Also, the MIC in the assay on S. epidermidis MRSE 70 is 0.25 µg/mL (≈ 0.599 µM); with S. pneumoniae 1/1, 0.06 µg/mL (≈ 0.144 µM); with S. pyogenes GAS-1 it was 0.25 µg/mL (≈ 0.599 µM); in the assay with S. viridans UHC7, 0.5 µg/mL (≈ 1.2 µM); with B. distasonis 5770, 1 µg/mL (≈ 2.4 µM); in the assay with P. acnes 6390, at most 0.03 µg/mL. The “Minimum Inhibitory Concentration (MIC) E. faecalis VanB E80-8” value with E. faecalis VanB E80-8 was found to be 1 micrograms/ml. The “Minimum Inhibitory Concentration (MIC) S. aureus MRSA 39” value with S. aureus MRSA 39 (setting [5]) and in the assay on S. aureus MRSA 39 (setting [6]) was 0.25 micrograms/ml throughout. In addition, the “Minimum Inhibitory Concentration (MIC) S. epidermidis MRSE 70” value with S. epidermidis MRSE 70 (setting [5]) and in the assay with S. epidermidis MRSE 70 (setting [6]) was 0.25 micrograms/ml each time. The “Minimum Inhibitory Concentration (MIC) S. pyogenes GAS-1” value in the assay on S. pyogenes GAS-1 is 0.25 micrograms/ml.
